Source: patent US20240190849A1, “AMINOPYRIMIDINE COMPOUNDS AND METHODS OF THEIR USE” (TYRA BIOSCIENCES, INC., priority 2021, published 2024)

Key:
Details in all cases: FGFR binding data
FGFR1 = target: T1, FGFR1 (Homo sapiens, UniProt P11362); assay: Kinase binding assay (kinase-tagged T7 phage, affinity beads, qPCR readout), FGFR1
T1 construct: made in house; host or cells: E. coli derived from BL21, infected with T7 phage
Description: (§1) Kinase-tagged T7 phage strains were prepared in an E. coli host derived from the BL21 strain. E. coli were grown to log-phase and infected with T7 phage and incubated with shaking at 32° C. until lysis. The lysates were centrifuged and filtered to remove cell debris. Streptavidin-coated magnetic beads were treated with biotinylated small molecule ligands for 30 minutes at room temperature to generate affinity resins for kinase assays. The liganded beads were blocked with excess biotin and washed with blocking buffer SeaBlock (Pierce), 1% BSA, 0.05% Tween 20, 1 mM DTT to remove unbound ligand and to reduce non-specific binding. Binding reactions were assembled by combining kinases, liganded affinity beads, and test compounds in 1× binding buffer (20% SeaBlock, 0.17×PBS, 0.05% Tween 20, 6 mM DTT).
(§2) Test compounds were prepared as 111× stocks in 100% DMSO. Kds were determined using an 11-point 3-fold compound dilution series with three DMSO control points. All compounds for Kd measurements are distributed by acoustic transfer (non-contact dispensing) in 100% DMSO. The compounds were then diluted directly into the assays such that the final concentration of DMSO was 0.9%. All reactions performed in polypropylene 384-well plate. Each was a final volume of 0.02 ml. The assay plates were incubated at room temperature with shaking for 1 hour and the affinity beads were washed with wash buffer (1×PBS, 0.05% Tween 20). The beads were then re-suspended in elution buffer (1×PBS, 0.05% Tween 20, 0.5 μM non-biotinylated affinity ligand) and incubated at room temperature with shaking for 30 minutes. The kinase concentration in the eluates was measured by qPCR.
(§3) Binding constants were calculated with a standard dose-response curve using the Hill equation: […]
(§4) The Hill Slope was set to −1. Curves were fitted using a non-linear least square fit with the Levenberg-Marquardt algorithm.

FGFR2 = target: T2, FGFR2 (Homo sapiens, UniProt P21802); assay: Kinase binding assay (kinase-tagged T7 phage, affinity beads, qPCR readout), FGFR2
T2 construct: made in house; host or cells: E. coli derived from BL21, infected with T7 phage
Description: as §1, §2, §3, §4

FGFR3 = target: T3, FGFR3 (Homo sapiens, UniProt P22607); assay: Kinase binding assay (kinase-tagged T7 phage, affinity beads, qPCR readout), FGFR3
T3 construct: made in house; host or cells: E. coli derived from BL21, infected with T7 phage
Description: as §1, §2, §3, §4

FGFR3 (V555M) = target: T4, FGFR3 (V555M) (Homo sapiens, UniProt P22607, V555M); assay: Kinase binding assay (kinase-tagged T7 phage, affinity beads, qPCR readout), FGFR3 (V555M)
T4 construct: made in house; host or cells: E. coli derived from BL21, infected with T7 phage
Description: as §1, §2, §3, §4

T1 sequence (P11362 22-822): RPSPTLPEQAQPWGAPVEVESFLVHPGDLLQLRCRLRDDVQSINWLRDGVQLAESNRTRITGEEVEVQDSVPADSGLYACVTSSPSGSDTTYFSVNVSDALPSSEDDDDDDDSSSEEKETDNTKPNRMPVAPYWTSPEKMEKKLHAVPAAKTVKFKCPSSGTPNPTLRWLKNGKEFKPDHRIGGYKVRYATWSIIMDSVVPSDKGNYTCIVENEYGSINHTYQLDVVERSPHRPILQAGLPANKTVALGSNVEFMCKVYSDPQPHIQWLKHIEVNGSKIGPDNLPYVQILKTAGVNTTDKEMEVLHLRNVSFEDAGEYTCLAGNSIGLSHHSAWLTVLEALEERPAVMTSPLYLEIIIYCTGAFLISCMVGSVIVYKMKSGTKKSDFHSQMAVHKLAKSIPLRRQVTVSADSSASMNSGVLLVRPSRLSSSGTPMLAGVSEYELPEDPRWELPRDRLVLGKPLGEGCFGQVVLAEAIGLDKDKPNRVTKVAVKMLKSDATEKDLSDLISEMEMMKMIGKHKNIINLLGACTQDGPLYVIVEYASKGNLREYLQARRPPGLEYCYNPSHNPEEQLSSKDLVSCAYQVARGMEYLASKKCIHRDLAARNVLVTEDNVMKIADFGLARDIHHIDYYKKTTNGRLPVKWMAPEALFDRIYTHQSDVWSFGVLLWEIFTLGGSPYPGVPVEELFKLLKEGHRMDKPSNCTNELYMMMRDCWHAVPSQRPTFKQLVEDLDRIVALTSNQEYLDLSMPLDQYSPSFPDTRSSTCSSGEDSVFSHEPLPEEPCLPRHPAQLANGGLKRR
T4 sequence (P22607 23-806 V555M): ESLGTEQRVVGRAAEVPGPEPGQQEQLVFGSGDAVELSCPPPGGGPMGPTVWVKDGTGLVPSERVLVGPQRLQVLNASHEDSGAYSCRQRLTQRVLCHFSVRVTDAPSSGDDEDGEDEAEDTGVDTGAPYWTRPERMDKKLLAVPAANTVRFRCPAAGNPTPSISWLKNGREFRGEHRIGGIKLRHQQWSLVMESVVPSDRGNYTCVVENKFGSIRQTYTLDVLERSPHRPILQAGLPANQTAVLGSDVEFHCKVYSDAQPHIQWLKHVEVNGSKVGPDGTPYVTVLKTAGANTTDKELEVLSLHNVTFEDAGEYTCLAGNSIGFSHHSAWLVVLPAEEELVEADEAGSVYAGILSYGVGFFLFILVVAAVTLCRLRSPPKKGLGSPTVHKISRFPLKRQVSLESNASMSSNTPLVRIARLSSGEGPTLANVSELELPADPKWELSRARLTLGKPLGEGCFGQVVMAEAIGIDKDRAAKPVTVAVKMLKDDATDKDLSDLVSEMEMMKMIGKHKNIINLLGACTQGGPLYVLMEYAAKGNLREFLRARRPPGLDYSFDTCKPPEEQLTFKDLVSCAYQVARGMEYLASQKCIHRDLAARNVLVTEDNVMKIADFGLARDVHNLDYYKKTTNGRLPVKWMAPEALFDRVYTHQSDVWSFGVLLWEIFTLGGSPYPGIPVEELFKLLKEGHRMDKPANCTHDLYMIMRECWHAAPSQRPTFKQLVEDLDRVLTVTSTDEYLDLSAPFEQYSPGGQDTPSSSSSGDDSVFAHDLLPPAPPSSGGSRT
T3 sequence (P22607 23-806): as the sequence (P22607 23-806 V555M) above, with M533V counted along it
T2 sequence (P21802 22-821): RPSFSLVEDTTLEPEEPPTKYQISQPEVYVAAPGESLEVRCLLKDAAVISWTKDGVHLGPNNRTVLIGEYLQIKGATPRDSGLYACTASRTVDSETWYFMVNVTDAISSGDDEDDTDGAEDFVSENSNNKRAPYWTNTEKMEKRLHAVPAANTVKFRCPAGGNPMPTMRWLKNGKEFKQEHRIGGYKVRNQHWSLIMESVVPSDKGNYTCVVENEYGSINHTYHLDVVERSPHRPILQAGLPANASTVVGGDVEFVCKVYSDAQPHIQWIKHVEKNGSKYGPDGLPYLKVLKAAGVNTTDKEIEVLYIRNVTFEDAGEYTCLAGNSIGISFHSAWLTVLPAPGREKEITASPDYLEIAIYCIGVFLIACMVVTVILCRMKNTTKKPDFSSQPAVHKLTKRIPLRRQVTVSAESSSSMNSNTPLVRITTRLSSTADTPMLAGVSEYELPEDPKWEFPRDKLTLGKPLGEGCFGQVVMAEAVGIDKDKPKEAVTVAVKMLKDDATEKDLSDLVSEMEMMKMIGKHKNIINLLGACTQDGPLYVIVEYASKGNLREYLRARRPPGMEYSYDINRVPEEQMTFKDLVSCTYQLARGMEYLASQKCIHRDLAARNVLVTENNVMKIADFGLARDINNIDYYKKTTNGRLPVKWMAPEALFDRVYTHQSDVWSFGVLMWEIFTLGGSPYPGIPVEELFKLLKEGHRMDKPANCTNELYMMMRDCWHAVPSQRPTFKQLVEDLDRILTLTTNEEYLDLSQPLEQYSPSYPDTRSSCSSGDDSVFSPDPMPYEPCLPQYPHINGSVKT

SMILES | Kd (FGFR1) | Kd (FGFR2) | Kd (FGFR3) | Kd (FGFR3 (V555M))
C=CC(=O)Nc1ccc2c(ccn2-c2nc(Nc3ccc(N(C)CCN(C)C)cc3)ncc2Cl)c1 [Example 3, N-[1-[5-chloro-2-[4-[2-(dimethylamino)ethyl-methyl-amino]anilino]pyrimidin-4-yl]indol-5-yl]prop-2-enamide] | 0.1 to 100 nM | 0.1 to 100 nM | 0.1 to 100 nM | 0.1 to 100 nM
C=CC(=O)Nc1ccc2c(ccn2-c2nc(Nc3cccc(OCCN4CCOCC4)c3)ncc2C)c1C [Example 5, N-[4-methyl-1-[5-methyl-2-[3-(2-morpholinoethoxy)anilino]pyrimidin-4-yl]indol-5-yl]prop-2-enamide] | 250 to 1000 nM | 100 to 250 nM | 100 to 250 nM | 0.1 to 100 nM
C=CC(=O)Nc1ccc2c(ccn2-c2nc(Nc3cccc(OCCN4CCOCC4)c3)ncc2Cl)c1 [Example 6, N-[1-[5-chloro-2-[3-(2-morpholinoethoxy)anilino]pyrimidin-4-yl]indol-5-yl]prop-2-enamide] | 250 to 1000 nM | 250 to 1000 nM | 250 to 1000 nM | 0.1 to 100 nM
C=CC(=O)Nc1ccc2c(ccn2-c2nc(Nc3ccc(N4CCOCC4)cc3OCC)ncc2Cl)c1 [Example 11, N-[1-[5-chloro-2-(2-ethoxy-4-morpholino-anilino)pyrimidin-4-yl]indol-5-yl]prop-2-enamide] | > 1000 nM | > 1000 nM | > 1000 nM | > 1000 nM
C=CC(=O)Nc1ccc2c(ccn2-c2nc(Nc3cn(C)nc3OC)ncc2Cl)c1 [Example 12, N-[1-[5-chloro-2-[(3-methoxy-1-methyl-pyrazol-4-yl)amino]-pyrimidin-4-yl]indol-5-yl]prop-2-enamide] | 250 to 1000 nM | > 1000 nM | 100 to 250 nM | 0.1 to 100 nM
C=CC(=O)Nc1ccc2c(ccn2-c2nc(Nc3ccccc3OCCN3CCOCC3)ncc2Cl)c1 [Example 13, N-[1-[5-chloro-2-[2-(2-morpholinoethoxy)anilino]pyrimidin-4-yl]indol-5-yl]prop-2-enamide] | > 1000 nM | > 1000 nM | > 1000 nM | > 1000 nM
C=CC(=O)Nc1ccc2c(ccn2-c2nc(Nc3cn(C)nc3OCC)ncc2Cl)c1 [Example 14, N-[1-[5-chloro-2-[(3-ethoxy-1-methyl-pyrazol-4-yl)amino]pyrimidin-4-yl]indol-5-yl]prop-2-enamide] | 250 to 1000 nM | > 1000 nM | > 1000 nM | 100 to 250 nM
C=CC(=O)Nc1ccc2c(ccn2-c2nc(Nc3ccc(N4CCOCC4)cc3)ncc2Cl)c1 [Example 15, N-[1-[5-chloro-2-(4-morpholinoanilino)pyrimidin-4-yl]indol-5-yl]prop-2-enamide] | 100 to 250 nM | 0.1 to 100 nM | 0.1 to 100 nM | 0.1 to 100 nM
C=CC(=O)Nc1ccc2c(ccn2-c2nc(Nc3cnn(C)c3)ncc2Cl)c1C [Example 18, N-[1-[5-chloro-2-[(1-methylpyrazol-4-yl)amino]pyrimidin-4-yl]-4-methyl-indol-5-yl]prop-2-enamide] | 100 to 250 nM | 100 to 250 nM | 100 to 250 nM | 0.1 to 100 nM
C=CC(=O)Nc1ccc2c(ccn2-c2nc(Nc3ccccc3OCC)ncc2Cl)c1 [Example 20, N-[1-[5-chloro-2-(2-ethoxyanilino)pyrimidin-4-yl]indol-5-yl]prop-2-enamide] | > 1000 nM | > 1000 nM | > 1000 nM | > 1000 nM
C=CC(=O)Nc1ccc2c(ccn2-c2nc(Nc3ccc(OCCN4CCOCC4)cc3)ncc2Cl)c1C [Example 21, N-[1-[5-chloro-2-[4-(2-morpholinoethoxy)anilino]pyrimidin-4-yl]-4-methyl-indol-5-yl]prop-2-enamide] | 250 to 1000 nM | 0.1 to 100 nM | 100 to 250 nM | 0.1 to 100 nM
C=CC(=O)Nc1ccc2c(c1)c(C)cn2-c1nc(Nc2c(C)cccc2OCC)ncc1Cl [Example 29, N-[1-[5-chloro-2-(2-ethoxy-6-methyl-anilino)pyrimidin-4-yl]-3-methyl-indol-5-yl]prop-2-enamide] | > 1000 nM | > 1000 nM | > 1000 nM | > 1000 nM
C=CC(=O)Nc1ccc2c(c1)c(C)cn2-c1nc(Nc2c(C)cccc2OCC)ncc1C#N [Example 33, N-[1-[5-cyano-2-(2-ethoxy-6-methyl-anilino)pyrimidin-4-yl]-3-methyl-indol-5-yl]prop-2-enamide] | > 1000 nM | > 1000 nM | > 1000 nM | > 1000 nM
C=CC(=O)Nc1ccc2c(c1)c(C)cn2-c1nc(Nc2cn(C)nc2OC)ncc1C#N [Example 37, N-[1-[5-cyano-2-[(3-methoxy-1-methyl-pyrazol-4-yl)amino]pyrimidin-4-yl]-3-methyl-indol-5-yl]prop-2-enamide] | 100 to 250 nM | 0.1 to 100 nM | 100 to 250 nM | 0.1 to 100 nM
C=CC(=O)Nc1ccc2c(c1)c(C)cn2-c1nc(Nc2ccccc2OCC)ncc1C#N [Example 39, N-[1-[5-cyano-2-(2-ethoxyanilino)pyrimidin-4-yl]-3-methyl-indol-5-yl]prop-2-enamide] | > 1000 nM | > 1000 nM | > 1000 nM | > 1000 nM
C=CC(=O)Nc1ccc2c(c1)c(C)cn2-c1nc(Nc2ccc3ncnn3c2)ncc1Cl [Example 47, N-[1-[5-chloro-2-([1,2,4]triazolo[1,5-a]pyridin-6-ylamino)pyrimidin-4-yl]-3-methyl-indol-5-yl]prop-2-enamide] | 100 to 250 nM | 0.1 to 100 nM | 0.1 to 100 nM | 0.1 to 100 nM

More lines, now with the values ahead:

Kd (FGFR1) | Kd (FGFR2) | Kd (FGFR3) | Kd (FGFR3 (V555M)) | SMILES
0.1 to 100 nM | 250 to 1000 nM | 100 to 250 nM | 0.1 to 100 nM | CCC(=O)Nc1ccc2c(ccn2-c2nc(Nc3ccc(N4CCN(C)CC4)cc3)ncc2Cl)c1 [Example 4, N-[1-[5-chloro-2-[4-(4-methylpiperazin-1-yl)anilino]pyrimidin-4-yl]indol-5-yl]propanamide]
250 to 1000 nM | 250 to 1000 nM | 0.1 to 100 nM | 0.1 to 100 nM | C=CC(=O)Nc1ccc2c(ccn2-c2nc(Nc3ccc(N4CCOCC4)c(F)c3)ncc2Cl)c1 [Example 16, N-[1-[5-chloro-2-(3-fluoro-4-morpholino-anilino)pyrimidin-4-yl]indol-5-yl]prop-2-enamide]
250 to 1000 nM | 250 to 1000 nM | 100 to 250 nM | 0.1 to 100 nM | C=CC(=O)Nc1ccc2c(ccn2-c2nc(Nc3ccc(N4CCOCC4)c(F)c3)ncc2Cl)c1C [Example 17, N-[1-[5-chloro-2-(3-fluoro-4-morpholino-anilino)pyrimidin-4-yl]-4-methyl-indol-5-yl]prop-2-enamide]
0.1 to 100 nM | 0.1 to 100 nM | 0.1 to 100 nM | 0.1 to 100 nM | C=CC(=O)Nc1ccc2c(-c3nc(Nc4ccc(OC)c(OC)c4)ncc3Cl)cn(C)c2c1 [Example 31, N-[3-[5-chloro-2-(3,4-dimethoxyanilino)pyrimidin-4-yl]-1-methyl-indol-6-yl]prop-2-enamide]
0.1 to 100 nM | 0.1 to 100 nM | 0.1 to 100 nM | 0.1 to 100 nM | C=CC(=O)Nc1ccc2c(-c3nc(Nc4ccc(N5CCOCC5)nc4)ncc3Cl)cn(C)c2c1 [Example 45, N-[3-[5-chloro-2-[(6-morpholino-3-pyridyl)amino]pyrimidin-4-yl]-1-methyl-indol-6-yl]prop-2-enamide]
0.1 to 100 nM | 0.1 to 100 nM | 0.1 to 100 nM | 0.1 to 100 nM | C=CC(=O)Nc1ccc2c(c1)c(C)cn2-c1nc(Nc2ccc(N3CCOCC3)c(OC)c2)ncc1C [Example 46, N-[1-[2-(3-methoxy-4-morpholino-anilino)-5-methyl-pyrimidin-4-yl]-3-methyl-indol-5-yl]prop-2-enamide]
0.1 to 100 nM | 0.1 to 100 nM | 0.1 to 100 nM | 0.1 to 100 nM | C=CC(=O)Nc1ccc2c(-c3nc(Nc4ccc(N5CCN(C)CC5)c(OC)c4)ncc3Cl)cn(C)c2c1 [Example 48, N-[3-[5-chloro-2-[3-methoxy-4-(4-methylpiperazin-1-yl)anilino]-pyrimidin-4-yl]-1-methyl-indol-6-yl]prop-2-enamide]
0.1 to 100 nM | 0.1 to 100 nM | 0.1 to 100 nM | 0.1 to 100 nM | C=CC(=O)Nc1ccc2c(-c3nc(Nc4ccc(N5CCOCC5)c(OC)c4)ncc3Cl)cn(C)c2c1 [Example 51, N-[3-[5-chloro-2-(3-methoxy-4-morpholino-anilino)pyrimidin-4-yl]-1-methyl-indol-6-yl]prop-2-enamide]
0.1 to 100 nM | 0.1 to 100 nM | 0.1 to 100 nM | 0.1 to 100 nM | C=CC(=O)Nc1ccc2c(-c3nc(Nc4ccc(N5CCOCC5)cc4)ncc3C)cn(C)c2c1 [Example 52, N-[1-Methyl-3-[5-methyl-2-(4-morpholinoanilino)pyrimidin-4-yl]indol-6-yl]prop-2-enamide]
